pIC50: −log10 of the molar value. Values after ≈ are worked out from the molar mass of the structure shown. Values joined by “and” are separate entries in the source; they are usually repeats but may differ in a detail not shown here. Equal values may be shown once. Read-outs that look alike come from different tables or passages of the source.
Experiments:
[1] = lungs of mice; cited from earlier work
[2] = target: recombinant M. bovis BCG-derived DprE1 (Mycobacterium tuberculosis, UniProt P9WJF1); assay: biochemical
[3] = tested on: M. tuberculosis ATCC 35820 (H37Rv SM-R); assay: MIC by agar proportion method, standard strain; assay type: cell-based; settings: Mycobacterium tuberculosis; […]; agar proportion method; read-out: MIC
[4] = tested on: intracellular M. tuberculosis Kurono; assay: microbe, parasite or virus in culture; assay type: cell-based
[5] = tested on: M. tuberculosis ATCC 35822 (H37Rv INH-R); assay: MIC by agar proportion method, standard strain; assay type: cell-based; settings: Mycobacterium tuberculosis; […]; agar proportion method; read-out: MIC
[6] = tested on: standard strains of nonmycobacterial aerobic and anaerobic bacteria; assay: Activity against nonmycobacterial bacteria; assay type: cell-based; settings: data not shown
[7] = tested on: 27 strains of M. tuberculosis; assay: Checkerboard agar dilution assay; assay type: cell-based; settings: combined with DMD, MXF, LVX, BDQ, or LZD
Experimental: FIG 4 In vitro combination effects of OPC-167832 and other anti-TB agents (checkerboard assay). The in vitro combination effects of OPC-167832 and existing anti-TB agents against 27 strains of M. tuberculosis were examined by the checkerboard agar dilution method. CI, confidence interval.
The checkerboard procedure was performed using the MICs of tested agents against the bacterial strains established by an agar dilution method reported previously ([36]). The level of synergy was determined by calculating the FIC index based on the following formulas: ΣFIC = FIC of compound A + FIC of compound B; FIC of compound A = MIC of compound A in combination ÷ MIC of compound A alone; FIC of compound B = MIC of compound B in combination ÷ MIC of compound B alone. The average ΣFIC value was interpreted using the European Committee on Antimicrobial Susceptibility Testing criteria ([37]) with the following values: ≤0.5, synergy; >0.5 to 1, additive effect; >1 to 2, indifference; >2, antagonism). The averages of the ΣFIC values and the 95% confidence intervals for the tested bacterial strains were calculated.

M. tuberculosis Kurono [8] = assay type: in vivo
[9] = tested on: M. tuberculosis ATCC 35838 (H37Rv RIF-R); assay: MIC by agar proportion method, standard strain; assay type: cell-based; settings: Mycobacterium tuberculosis; […]; agar proportion method; read-out: MIC
[10] = tested on: growing M. tuberculosis H37Rv; assay type: cell-based
M. tuberculosis Kurono [11] = assay: Monotherapy in a mouse model of chronic TB; assay type: in vivo
[12] = lung
[13] = tested on: clinically isolated M. tuberculosis strains; assay type: cell-based; settings: summary in abstract
[14] = tested on: intracellular M. tuberculosis H37Rv; assay: microbe, parasite or virus in culture; assay type: cell-based
[15] = tested on: M. tuberculosis ATCC 35837 (H37Rv EMB-R); assay: MIC by agar proportion method, standard strain; assay type: cell-based; settings: Mycobacterium tuberculosis; […]; agar proportion method; read-out: MIC
M. caprae ATCC BAA-824 = assay: MIC by agar proportion method, standard strain; assay type: cell-based; settings: ATCCBAA824; M. caprae ATCC BAA-824; agar proportion method; read-out: MIC
[16] = tested on: M. pinnipedii ATCC BAA-688; assay: MIC by agar proportion method, standard strain; assay type: cell-based; settings: ATCCBAA688; M. pinnipedii ATCC BAA-688; agar proportion method; read-out: MIC
in vivo = settings: ICR, mouse
M. microti ATCC 11152 = assay: MIC by agar proportion method, standard strain; assay type: cell-based; settings: ATCC11152; M. microti ATCC 11152; agar proportion method; read-out: MIC
M. africanum ATCC 25420 = assay: MIC by agar proportion method, standard strain; assay type: cell-based; settings: ATCC25420; M. africanum ATCC 25420; agar proportion method; read-out: MIC
[17] = tested on: M. tuberculosis ATCC 35812 (Kurono); assay: MIC by agar proportion method, standard strain; assay type: cell-based; settings: Mycobacterium tuberculosis, ATCC35812; ATCC 35812 (Kurono); agar proportion method; read-out: MIC
M. bovis ATCC BAA-935 = assay: microbe, parasite or virus in culture; assay type: cell-based; settings: Mycobacterium tuberculosis variant bovis, ATCCBAA935
[18] = tested on: M. tuberculosis ATCC 27294 (H37Rv); assay: MIC by agar proportion method, standard strain; assay type: cell-based; settings: Mycobacterium tuberculosis; ATCC 27294 (H37Rv); agar proportion method; […]; read-out: MIC
[19] = tested on: M. tuberculosis ATCC 35828 (H37Rv PZA-R); assay: MIC by agar proportion method, standard strain; assay type: cell-based; settings: Mycobacterium tuberculosis; […]; agar proportion method; read-out: MIC
M. tuberculosis = settings: cited from earlier work

recombinant M. bovis BCG-derived DprE1, sequence (P9WJF1 whole entry): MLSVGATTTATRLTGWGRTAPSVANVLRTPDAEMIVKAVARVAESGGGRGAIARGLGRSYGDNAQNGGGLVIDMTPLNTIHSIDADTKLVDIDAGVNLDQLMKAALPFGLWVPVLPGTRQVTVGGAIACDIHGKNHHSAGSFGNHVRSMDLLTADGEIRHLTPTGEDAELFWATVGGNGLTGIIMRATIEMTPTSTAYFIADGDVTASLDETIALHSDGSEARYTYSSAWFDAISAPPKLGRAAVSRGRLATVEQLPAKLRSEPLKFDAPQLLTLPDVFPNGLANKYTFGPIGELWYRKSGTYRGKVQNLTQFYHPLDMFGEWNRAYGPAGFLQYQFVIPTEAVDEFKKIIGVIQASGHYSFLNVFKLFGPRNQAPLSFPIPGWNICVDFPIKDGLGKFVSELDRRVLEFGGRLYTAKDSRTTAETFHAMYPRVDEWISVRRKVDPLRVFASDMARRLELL

O=c1nc(N2CCN(CC3CCCCC3)CC2)sc2c([N+](=O)[O-])cc(C(F)(F)F)cc12 [PBTZ169]
Kp (tissue to plasma partition coefficient), lungs [1]: 0.415

C[C@H]1COC2(CCN(c3nc(=O)c4cc(C(F)(F)F)cc([N+](=O)[O-])c4s3)CC2)O1 [BTZ043]
pIC50 [2]: 6.39

O=C1CCc2c(OC[C@]3(O)CCN(c4c(F)cc(Cl)cc4F)C[C@H]3O)ccc(F)c2N1 [OPC-167832]
MIC [3]: 1 ng/mL (≈ 0.00219 µM) | bactericidal activity against intracellular bacilli ([4]; Kurono in THP-1-derived macrophage-like cells, 3 days): killed the intracellular bacilli | IC90 ([4]; Mycobacterium tuberculosis, THP-1, read-out: 90% inhibitory concentration (IC90)): 2.7 ng/mL (≈ 0.00591 µM) | MIC [5]: 0.24 ng/mL (≈ 0.000525 µM) | activity against nonmycobacterial aerobic and anaerobic bacteria [6]: minimal or no activity | interactive effect (mean FIC index) [7]: indifferent effect | lung CFU compared to the vehicle group, single agent (M. tuberculosis Kurono [8]; oral 5 days per week, 4 weeks, OPC-167832 0.625, DMD 0.625, BDQ 5, LVX 300, LZD 100 mg/kg): significant decrease of lung CFU | MIC [9]: 0.5 ng/mL (≈ 0.00109 µM) | concentration at which killing activity was achieved [10]: 0.0005 µg/mL | lung CFU compared to the vehicle group (M. tuberculosis Kurono [11]; 0.625, 1.25, 2.5, 5 and 10 mg/kg oral daily, 4 weeks, ICR female mice): significantly reduced lung CFU | minimum effective dose (M. tuberculosis Kurono [11]; mouse model of chronic TB, oral): 0.625 mg/kg | AUCt ([12]; 0.625 mg/kg oral, t: 8h): 505 ng·h/g | AUCt ([12]; 1.25 mg/kg oral, t: 8h): 909 ng·h/g | AUCt ([12]; 2.5 mg/kg oral, t: 8h): 2133 ng·h/g | AUCt ([12]; 5 mg/kg oral, t: 12h): 4742 ng·h/g | AUCt ([12]; 10 mg/kg oral, t: 12h): 7410 ng·h/g | MICs for Mycobacterium tuberculosis (overall range) [13]: 0.00024 to 0.002 µg/mL | concentration at which intracellular bactericidal activity was saturated [14]: ≥ 0.004 µg/mL | bactericidal activity against intracellular bacilli ([14]; H37Rv in THP-1-derived macrophage-like cells, 3 days): killed the intracellular bacilli | IC90 ([14]; Mycobacterium tuberculosis, H37RV, THP-1, read-out: 90% inhibitory concentration (IC90)): 4.8 ng/mL (≈ 0.0105 µM) | MIC [15]: 2 ng/mL (≈ 0.00438 µM) | MIC (M. caprae ATCC BAA-824): 1 ng/mL (≈ 0.00219 µM) | MIC [16]: 0.5 ng/mL (≈ 0.00109 µM) | Kp (in vivo): 1.67 to 1.96 | Kp (in vivo; female, po): ~2 | Tmax (in vivo; female, po): 0.5 to 1 h | AUC(0-t) (in vivo; female, po, 0.625 mg/kg): 283 ng·h/mL | Cmax (in vivo; female, po, 0.625 mg/kg): 162 ng/g | Tmax (in vivo; female, po, 0.625 mg/kg): 1 h | half-life (in vivo; female, po, 0.625 mg/kg, t1/2, lung, 0.625 mg/kg oral, calculated 2 - 8h): 1.4 h | half-life (in vivo; female, po, 0.625 mg/kg, t1/2, plasma, 0.625 mg/kg oral, calculated 2 - 8h): 1.6 h | AUC(0-t) (in vivo; female, po, 1.25 mg/kg): 543 ng·h/mL | Cmax (in vivo; female, po, 1.25 mg/kg): 303 ng/g and 200 ng/mL | Tmax (in vivo; female, po, 1.25 mg/kg): 1 h | half-life (in vivo; female, po, 1.25 mg/kg, t1/2, lung, 1.25 mg/kg oral, calculated 4 - 8h): 2 h | half-life (in vivo; female, po, 1.25 mg/kg, t1/2, plasma, 1.25 mg/kg oral, calculated 2 - 12h): 1.5 h | AUC(0-t) (in vivo; female, po, 2.5 mg/kg): 1140 ng·h/mL | Cmax (in vivo; female, po, 2.5 mg/kg): 314 ng/mL and 651 ng/g | Tmax (in vivo; female, po, 2.5 mg/kg): 0.5 h | half-life (in vivo; female, po, 2.5 mg/kg, t1/2, lung, 2.5 mg/kg oral, calculated 2 - 8h): 1.3 h | half-life (in vivo; female, po, 2.5 mg/kg, t1/2, plasma, 2.5 mg/kg oral, calculated 6 - 12h): 1.3 h | AUC(0-t) (in vivo; female, po, 5 mg/kg): 2650 ng·h/mL | Cmax (in vivo; female, po, 5 mg/kg): 758 ng/mL and 1360 ng/g | Tmax (in vivo; female, po, 5 mg/kg): 1 h | half-life (in vivo; female, po, 5 mg/kg, t1/2, lung, 5 mg/kg oral, calculated 2 - 12h): 2.1 h | half-life (in vivo; female, po, 5 mg/kg, t1/2, plasma, 5 mg/kg oral, calculated 2 - 12h): 2.1 h | AUC(0-t) (in vivo; female, po, 10 mg/kg): 3780 ng·h/mL | Cmax (in vivo; female, po, 10 mg/kg): 1090 ng/mL and 2220 ng/g | Tmax (in vivo; female, po, 10 mg/kg): 1 h | half-life (in vivo; female, po, 10 mg/kg, t1/2, lung, 10 mg/kg oral, calculated 6 - 12h): 2.1 h | half-life (in vivo; female, po, 10 mg/kg, t1/2, plasma, 10 mg/kg oral, calculated 2 - 12h): 1.6 h | half-life (in vivo; female, po, half-life (t1/2), plasma, oral doses 0.625 to 10 mg/kg): 1.3 to 2.1 h | MIC (M. microti ATCC 11152): 1 ng/mL (≈ 0.00219 µM) | MIC (M. africanum ATCC 25420): 2 ng/mL (≈ 0.00438 µM) | MIC [17]: 0.5 ng/mL (≈ 0.00109 µM) | MIC (M. bovis ATCC BAA-935): 2 ng/mL (≈ 0.00438 µM) | MIC [18]: 0.5 ng/mL (≈ 0.00109 µM) | MIC [19]: 1 ng/mL (≈ 0.00219 µM)

CCOC(=O)NC(=O)c1ccsc1NC(=O)c1nc2ccccc2s1 [TCA1]
MIC (M. tuberculosis): 190 ng/mL (≈ 0.506 µM)

NNC(=O)c1ccncc1 [INH, isoniazid]
pIC50 [2]: < 5.00

COc1nc2ccc(Br)cc2cc1[C@@H](c1ccccc1)[C@@](O)(CCN(C)C)c1cccc2ccccc12 [BDQ, bedaquiline]
MIC [3]: 63 ng/mL (≈ 0.113 µM) | MIC [5]: 63 ng/mL (≈ 0.113 µM) | lung CFU compared to the vehicle group, single agent (M. tuberculosis Kurono [8]; in vivo): significant decrease of lung CFU | MIC [9]: 63 ng/mL (≈ 0.113 µM) | MIC [15]: 63 ng/mL (≈ 0.113 µM) | MIC (M. caprae ATCC BAA-824): 130 ng/mL (≈ 0.234 µM) | MIC [16]: 130 ng/mL (≈ 0.234 µM) | MIC (M. microti ATCC 11152): 63 ng/mL (≈ 0.113 µM) | MIC (M. africanum ATCC 25420): 250 ng/mL (≈ 0.45 µM) | MIC [17]: 63 ng/mL (≈ 0.113 µM) | MIC (M. bovis ATCC BAA-935): 130 ng/mL (≈ 0.234 µM) | MIC [18]: 63 ng/mL (≈ 0.113 µM) | MIC [19]: 130 ng/mL (≈ 0.234 µM)

— PMC7269503 (Antimicrobial Agents and Chemotherapy, 2020)
